Literature values in US4749649A, “Microbial Δ1-dehydrogenation process using a scavenger of toxic oxygen” (The Upjohn Company, priority 1983, dated 1988).

Experiments:
steroid-1-dehydrogenase = settings: Pseudomonas testosteroni; potential toxicity by superoxide and peroxide formation
[1] = compared with hydrocortisone and cortisone
[2] = compared with hydrocortisone and cortisone; remark: listed apart in the source

Compound	1-dehydrogenase activity in the presence of PMS (steroid-1-dehydrogenase)	drug-induced salt retention [1]	potency [2]
C[n+]1c2ccccc2nc2ccccc21 [PMS, phenazinemethosulfate]	essentially unaffected	–	–
C[C@]12C=CC(=O)C=C1CC[C@@H]1[C@@H]2[C@@H](O)C[C@@]2(C)[C@H]1CC[C@]2(O)C(=O)CO [prednisolone]	–	less drug-induced salt retention	enhanced potency
C[C@]12C=CC(=O)C=C1CC[C@@H]1[C@@H]2C(=O)C[C@@]2(C)[C@H]1CC[C@]2(O)C(=O)CO [prednisone]	–	less drug-induced salt retention	–
